From ChEMBL document CHEMBL1201862, “PubChem BioAssay data set” (2004)
Calls of active or inactive are those of the source.

Tests used:
[1] = target: FAD-linked sulfhydryl oxidase ALR (Homo sapiens, UniProt P55789); experiment: ALR-catalysed DTT oxidation blockers – biochemical, H2O2 detection, luminescence, cherry-pick, dose response (AID 493248)
[2] = Luminescence Cell-Based Dose Response HTS to Identify Activators of Luciferase Translation or Activity in H4 […] Cells. [Related pubchem assays: 1829 (Project Summary), 1814 (Primary HTS)]; type: functional
Streptococcus = experiment: GAS UMAA2166 growth inhibition – luminescence, BacTiterGlo, counter-screen for streptokinase expression inhibitor project, dose response (AID 1915); type: functional, organism-based;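 also: potency for reduction of bacterial viability or growth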
H4 = experiment: Luminescence Cell-Based Dose Response HTS to Identify Activators of 5'UTR Stem-Loop Driven Prion Protein mRNA Translation in H4 Neuroglioblastoma Cells. [Related pubchem assays: 1829 (Project Summary), 1814 (Primary HTS)]; type: functional; conditions: Homo sapiens
[3] = Luminescence Cell-Based Dose Confirmation HTS to Identify Activators of 5'UTR Stem-Loop Driven Alpha-Synuclein mRNA Translation in H4 Neuroglioblastoma Cells. [Related pubchem assays: 1829 (Project Summary), 1814 (Primary HTS)]; type: functional
[4] = test system: Streptococcus sp. 'group A'; experiment: Streptococcus pyogenes SK(-)GAS viability under kanamycin – luminescence, BacTiterGlo, confirmation, counter-screen for streptokinase expression inhibitor project, dose response (AID 1900); type: functional, organism-based
Streptokinase A = target: T1, Streptokinase A (Streptococcus pyogenes serotype M1, UniProt P10520); experiment: viability-normalized secreted streptokinase activity reduction – plasminogen activation absorbance, OD405, dose response (AID 1914); type: functional, Streptococcus pyogenes M1 GAS;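 also: secreted streptokinase activity via plasminogen activation per viability signal from cell pellet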
T1 sequence (P10520 whole entry): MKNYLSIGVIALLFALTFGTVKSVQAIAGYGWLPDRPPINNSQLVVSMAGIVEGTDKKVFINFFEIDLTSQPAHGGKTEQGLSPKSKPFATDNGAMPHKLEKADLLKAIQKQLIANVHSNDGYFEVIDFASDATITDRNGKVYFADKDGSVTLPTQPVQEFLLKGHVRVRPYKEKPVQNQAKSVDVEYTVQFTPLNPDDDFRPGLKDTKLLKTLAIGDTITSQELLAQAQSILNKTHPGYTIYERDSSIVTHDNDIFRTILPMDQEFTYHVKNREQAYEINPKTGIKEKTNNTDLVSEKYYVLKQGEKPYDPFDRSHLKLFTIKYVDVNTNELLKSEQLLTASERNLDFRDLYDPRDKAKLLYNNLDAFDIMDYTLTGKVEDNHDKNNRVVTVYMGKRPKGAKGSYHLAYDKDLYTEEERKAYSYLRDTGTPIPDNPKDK

[5] = target: T2, Replicative DNA helicase DnaB (Mycobacterium tuberculosis, UniProt P9WMR3); experiment: DnaB intein splicing inhibitors, dose response, biochemical, cell-free fluorescence (AID 449749); type: functional
T2 sequence (P9WMR3 whole entry): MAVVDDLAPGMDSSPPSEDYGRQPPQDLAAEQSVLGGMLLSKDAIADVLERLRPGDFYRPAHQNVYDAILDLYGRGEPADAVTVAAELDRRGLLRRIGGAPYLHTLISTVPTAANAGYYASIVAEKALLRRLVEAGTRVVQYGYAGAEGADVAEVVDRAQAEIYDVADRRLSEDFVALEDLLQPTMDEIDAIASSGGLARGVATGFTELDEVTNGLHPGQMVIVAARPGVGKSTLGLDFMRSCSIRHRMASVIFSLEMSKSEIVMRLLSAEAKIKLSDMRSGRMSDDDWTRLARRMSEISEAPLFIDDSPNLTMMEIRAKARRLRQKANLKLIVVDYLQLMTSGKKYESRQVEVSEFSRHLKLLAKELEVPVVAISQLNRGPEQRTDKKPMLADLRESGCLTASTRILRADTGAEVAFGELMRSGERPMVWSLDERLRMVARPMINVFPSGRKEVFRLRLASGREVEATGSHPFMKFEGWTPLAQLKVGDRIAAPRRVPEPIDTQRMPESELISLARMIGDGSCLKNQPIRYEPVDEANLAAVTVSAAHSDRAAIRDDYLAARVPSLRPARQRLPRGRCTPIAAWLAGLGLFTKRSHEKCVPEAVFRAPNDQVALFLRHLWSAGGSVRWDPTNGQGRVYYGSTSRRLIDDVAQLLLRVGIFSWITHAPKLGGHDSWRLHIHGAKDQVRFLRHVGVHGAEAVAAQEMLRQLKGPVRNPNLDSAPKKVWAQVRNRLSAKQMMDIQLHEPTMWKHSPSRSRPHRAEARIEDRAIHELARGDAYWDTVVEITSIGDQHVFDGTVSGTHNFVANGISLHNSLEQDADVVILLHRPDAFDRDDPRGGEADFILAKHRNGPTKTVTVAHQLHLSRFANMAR

Protein RecA = target: T3, Protein RecA (Mycobacterium tuberculosis, UniProt P9WHJ3); experiment: Fluorescence Cell-Free Homogeneous Dose Retest to Identify Inhibitors of RecA-Intein Splicing Activity. [Related pubchem assays (depositor defined):AID2097, AID2223, AID489010, AID492950]; type: functional
T3 sequence (P9WHJ3 whole entry): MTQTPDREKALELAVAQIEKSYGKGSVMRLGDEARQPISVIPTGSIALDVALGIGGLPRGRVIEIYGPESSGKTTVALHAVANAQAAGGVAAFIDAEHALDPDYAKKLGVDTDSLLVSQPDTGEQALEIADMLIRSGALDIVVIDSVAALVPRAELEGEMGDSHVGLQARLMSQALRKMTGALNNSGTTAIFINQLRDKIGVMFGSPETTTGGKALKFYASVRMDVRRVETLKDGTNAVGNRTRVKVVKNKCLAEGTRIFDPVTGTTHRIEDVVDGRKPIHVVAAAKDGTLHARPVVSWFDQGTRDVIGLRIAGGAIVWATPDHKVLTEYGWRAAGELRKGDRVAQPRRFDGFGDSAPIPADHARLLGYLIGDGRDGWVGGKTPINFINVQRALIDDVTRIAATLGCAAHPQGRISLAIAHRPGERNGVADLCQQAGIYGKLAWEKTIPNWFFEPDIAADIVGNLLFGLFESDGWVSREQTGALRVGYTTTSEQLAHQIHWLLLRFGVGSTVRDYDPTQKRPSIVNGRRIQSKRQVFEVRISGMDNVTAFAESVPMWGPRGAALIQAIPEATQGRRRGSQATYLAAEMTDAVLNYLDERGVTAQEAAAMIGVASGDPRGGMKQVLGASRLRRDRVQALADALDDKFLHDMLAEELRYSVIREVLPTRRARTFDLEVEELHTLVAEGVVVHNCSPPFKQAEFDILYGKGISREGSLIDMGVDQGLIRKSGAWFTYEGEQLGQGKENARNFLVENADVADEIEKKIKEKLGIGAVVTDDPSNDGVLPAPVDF

Cytochrome P450 2C19 = Cytochrome P450 2C19 (Homo sapiens, UniProt P33261); experiment: Cytochrome panel assay with activity outcomes. Panel member name: p450-cyp2c19 Compounds with AC50 equal or less than 10 uM are considered active; type: functional; conditions: read-out: AC50
Cytochrome P450 1A2 = target: T4, Cytochrome P450 1A2 (Homo sapiens, UniProt P05177);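 also: PubChem cytochrome P450 panel assay, CYP1A2 panel member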
T4 sequence (P05177 whole entry): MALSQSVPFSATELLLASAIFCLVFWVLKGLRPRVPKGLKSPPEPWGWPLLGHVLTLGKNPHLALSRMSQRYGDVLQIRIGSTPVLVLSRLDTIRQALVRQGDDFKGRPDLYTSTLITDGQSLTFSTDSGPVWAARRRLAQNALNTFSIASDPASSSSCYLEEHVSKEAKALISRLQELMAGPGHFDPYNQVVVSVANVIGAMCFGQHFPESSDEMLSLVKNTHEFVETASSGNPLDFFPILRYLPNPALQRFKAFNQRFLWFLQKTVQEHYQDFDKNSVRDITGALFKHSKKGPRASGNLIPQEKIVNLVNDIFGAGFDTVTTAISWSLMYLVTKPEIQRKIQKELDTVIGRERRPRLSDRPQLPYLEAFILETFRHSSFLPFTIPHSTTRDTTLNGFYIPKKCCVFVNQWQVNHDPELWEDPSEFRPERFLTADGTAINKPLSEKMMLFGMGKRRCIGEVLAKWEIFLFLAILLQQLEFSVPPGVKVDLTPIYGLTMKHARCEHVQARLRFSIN

[6] = target: T5, Heat shock factor protein 1 (Mus musculus, UniProt P38532); experiment: enhancement of HSF1-driven luciferase signal – cell-based, NIH3T3, luminescence, dose retest, confirmation (AID 435004); type: functional;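 also: stress induced by proteasome inhibitor MG132 added 30 min after compound; luciferase reporter driven by HSF1 response element in NIH3T3 cells; actives raise luminescence as potentiators of the MG132 stress response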
T5 sequence (P38532 whole entry): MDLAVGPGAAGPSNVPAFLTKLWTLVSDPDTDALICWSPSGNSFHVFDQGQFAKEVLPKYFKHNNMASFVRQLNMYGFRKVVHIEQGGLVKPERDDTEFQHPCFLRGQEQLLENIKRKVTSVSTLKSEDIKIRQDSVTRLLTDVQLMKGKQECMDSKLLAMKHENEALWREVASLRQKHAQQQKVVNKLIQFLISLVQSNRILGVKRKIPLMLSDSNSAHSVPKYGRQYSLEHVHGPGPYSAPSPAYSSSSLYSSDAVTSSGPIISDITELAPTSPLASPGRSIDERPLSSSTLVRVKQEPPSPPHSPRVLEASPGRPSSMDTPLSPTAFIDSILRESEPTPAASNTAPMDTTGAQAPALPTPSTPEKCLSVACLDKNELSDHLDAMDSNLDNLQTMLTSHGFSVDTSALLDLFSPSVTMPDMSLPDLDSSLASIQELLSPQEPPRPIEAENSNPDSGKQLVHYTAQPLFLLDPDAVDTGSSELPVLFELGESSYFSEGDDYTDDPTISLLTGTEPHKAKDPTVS

[7] = target: T6, Rac GTPase-activating protein 1 (Homo sapiens, UniProt Q9H0H5); experiment: blockers of MgcRacGAP-driven Rac1 GTP hydrolysis – biochemical, ADP Hunter fluorescence, primary and confirmatory, confirmation (AID 624330); type: functional
T6 sequence (Q9H0H5 whole entry): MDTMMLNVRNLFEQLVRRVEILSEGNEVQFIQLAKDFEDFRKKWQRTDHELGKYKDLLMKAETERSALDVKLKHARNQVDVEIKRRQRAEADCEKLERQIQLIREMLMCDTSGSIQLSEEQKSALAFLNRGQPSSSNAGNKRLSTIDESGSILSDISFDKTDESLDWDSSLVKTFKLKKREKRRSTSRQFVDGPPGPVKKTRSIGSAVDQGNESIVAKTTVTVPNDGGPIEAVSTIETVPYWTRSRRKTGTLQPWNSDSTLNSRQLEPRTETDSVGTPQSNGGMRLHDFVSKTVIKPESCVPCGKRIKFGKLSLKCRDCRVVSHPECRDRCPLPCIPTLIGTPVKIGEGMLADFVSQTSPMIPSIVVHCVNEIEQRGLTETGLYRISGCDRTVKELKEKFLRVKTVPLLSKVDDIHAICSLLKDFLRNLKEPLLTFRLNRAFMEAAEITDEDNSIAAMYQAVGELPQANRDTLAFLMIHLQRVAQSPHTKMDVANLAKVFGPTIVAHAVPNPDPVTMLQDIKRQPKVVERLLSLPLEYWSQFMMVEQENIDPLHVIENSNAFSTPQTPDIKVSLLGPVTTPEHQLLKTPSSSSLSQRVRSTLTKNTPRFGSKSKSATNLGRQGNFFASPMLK

Chain of FAD-linked sulfhydryl oxidase ALR (P55789 whole entry): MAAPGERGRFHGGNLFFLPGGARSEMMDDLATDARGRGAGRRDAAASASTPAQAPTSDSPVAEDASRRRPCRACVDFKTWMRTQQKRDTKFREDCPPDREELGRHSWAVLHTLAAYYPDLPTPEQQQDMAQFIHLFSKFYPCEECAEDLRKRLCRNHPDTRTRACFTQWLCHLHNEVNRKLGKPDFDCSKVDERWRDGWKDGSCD
Chain of Cytochrome P450 2C19 (P33261 whole entry): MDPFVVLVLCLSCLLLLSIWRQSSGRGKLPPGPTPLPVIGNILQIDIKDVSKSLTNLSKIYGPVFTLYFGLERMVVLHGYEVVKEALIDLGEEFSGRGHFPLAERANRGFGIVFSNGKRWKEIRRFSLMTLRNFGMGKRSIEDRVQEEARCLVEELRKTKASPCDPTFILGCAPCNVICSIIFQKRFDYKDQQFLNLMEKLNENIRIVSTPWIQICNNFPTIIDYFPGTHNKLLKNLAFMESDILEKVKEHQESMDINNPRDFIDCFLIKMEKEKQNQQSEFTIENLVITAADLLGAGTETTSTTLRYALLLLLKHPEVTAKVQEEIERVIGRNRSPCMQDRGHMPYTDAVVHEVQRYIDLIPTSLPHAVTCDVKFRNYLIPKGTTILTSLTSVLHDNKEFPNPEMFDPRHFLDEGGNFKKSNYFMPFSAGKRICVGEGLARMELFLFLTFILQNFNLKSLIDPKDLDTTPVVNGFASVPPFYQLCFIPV

Compound: O=C(NCC(=O)N1CCN(c2ccccc2O)CC1)c1ccco1
- AC50 [1]: 2.22 µM (active)

Compound: c1ccc(-c2onc(-c3ccco3)c2-c2ccc3[nH]ccc3c2)cc1
- EC50 [2]: 63.1 µM (active)
- EC50 (Streptococcus): 26.4 µM (active)
- EC50 (H4): 23.7 µM (active)
- EC50 [3]: 14.3 µM (active)
- EC50 [4]: 3.19 µM (active)
- EC50 (Streptokinase A): 4.99 µM (active)

Compound: CCc1ccc(NC(=O)CSc2ccc(-c3sc(C)nc3C)nn2)cc1
- AC50 [5]: 278 µM (active)
- EC50 (Protein RecA): > 380 µM (inactive)

Compound: CC(C)(C)OC(=O)NCc1nnc(S)n1C1CC1
- AC50 [1]: 5.46 µM (active)

Compound: O=C(c1cccc(C(F)(F)F)c1)C1CCCN(C(=O)c2cc(C3CC3)[nH]n2)C1 (configuration not stated)
- AC50 [1]: 0.392 µM (active)

Compound: Cc1ccc(C)c(NC(=O)NNS(=O)(=O)c2ccc(C)c(C)c2)c1
- AC50 [1]: 3.8 µM (active)

Compound: CCOc1cc(/C=C2\C(=N)N3N=C(N4CCCCC4)SC3=NC2=O)ccc1OC(=O)c1ccco1
- AC50 [5]: > 380 µM (inactive)
- EC50 (Protein RecA): 18.6 µM (active)

Compound: Cc1c(C(=O)O)c2cc(O)ccc2n1-c1ccccc1
- AC50 [1]: 5.18 µM (active)

Compound: CN1CCN2c3ccc(N)cc3CC3(C(=O)NC(=O)NC3=O)C2C1 (configuration not stated)
- AC50 [5]: 147 µM (active)
- EC50 (Protein RecA): 39.5 µM (active)

Compound: CCc1ccc(CN(C(=O)c2cc3ccccc3oc2=O)C2CCS(=O)(=O)C2)cc1 (configuration not stated)
- EC50 [2]: 28.6 µM (active)
- EC50 (H4): 0.547 µM (active)
- EC50 [3]: 27.7 µM (active)
- AC50 (Cytochrome P450 2C19): 20 µM (inconclusive)
- AC50 (Cytochrome P450 1A2): 28.2 µM (inconclusive)

Compound: [O-]c1c[n+](-c2ccc(-[n+]3cc([O-])on3)cc2)no1
- AC50 [1]: 4.1 µM (active)

Compound: COc1ccc(-c2[nH]nc3c2C(c2ccccc2OC(=O)N2CCOCC2)C(C#N)=C(N)O3)cc1 (configuration not stated)
- AC50 [5]: 11.2 µM (active)
- EC50 (Protein RecA): 3.91 µM (active)

Compound: Cc1ccc2occ(C3N[C@H](C(=O)O)CS3)c(=O)c2c1 (some centres not stated)
- AC50 [1]: 0.392 µM (active)

Compound: CCN(CC)c1ccc(NS(=O)(=O)c2ccc(-c3ccc(O)nn3)o2)c(C)c1
- AC50 [1]: 0.382 µM (active)

Compound: CCC1(C(=O)O)NC(c2cc(OC)ccc2O)C2C(=O)N(Cc3ccccc3)C(=O)C21 (configuration not stated)
- AC50 [1]: 7.15 µM (active)

Compound: Cc1ccc(-c2c3c(=O)n(C)c(=O)n(C)c3cn2-n2cnnc2)cc1
- EC50 [6]: 13.5 µM (active)
- AC50 [1]: 9.89 µM (active)

Compound: Oc1ccccc1/C=N/Nc1ccccc1
- AC50 [1]: 7.86 µM (active)

Compound: CCN(CC)C(=N)/C(C#N)=N/Nc1ccc(C)cc1
- AC50 [1]: 0.035 µM (active)

Compound: COc1ccc(CC(=O)N/N=C(/C)CC(=O)N(C)c2ccccc2)cc1
- AC50 [5]: 29.3 µM (active)
- EC50 (Protein RecA): 9.23 µM (active)

Compound: Cn1cccc1/C=N/N1CCN(c2ccccc2)CC1
- IC50 [7]: 84.2 µM (active)
- AC50 [1]: 85.3 µM (active)

Compound: CCCn1c2ccc(/C(C)=N\O)cc2c2cc(/C(C)=N/O)ccc21
- AC50 [1]: 0.028 µM (active)
